Laboratory results taken from patent publication US20100160440A1, “INTRANASAL PHARMACEUTICAL COMPOSITIONS COMPRISING SUCCINIC ACID AND METHODS THEREOF” (priority 2007, published 2010).
Read-outs that look alike come from different tables or passages of the source.

System: male Wistar rats injected with beta-amyloid peptide 25-35 into NBM
Details: for Improvement in learning and memory as compared to control rats: 1 mg/kg for 7 days; for Latency (retention latency to enter dark compartment, mean±SD): 1 mg/kg succinic acid water solution once a day for 7 days from day 16 after beta-amyloid, retention trial 24 h after acquisition, cut-off 180 s, n=8
Description: Beta-amyloid was administered bilaterally into NBM of male Wistar rats in dose of 2 μg per each side. On day 16th after the amyloid injection, rats received intranasally or intraperitoneally compositions comprising a water solution of 1 mg/kg of succinic acid for 7 days singly a day. Control rats received saline intranasally. On day next to the last day of the treatment, passive avoidance performance in rats was tested for two consecutive days. A two-compartment, step-through, passive avoidance apparatus consisting of illuminated (25×40×25 cm) and dark (25×40×25 cm) compartments attached to an electrified grid floor and separated by a guillotine door (8×8 cm) was used. In the acquisition trial, the rat was placed in the illuminated compartment in a position its tail directed to the closed door for 2 min to habituate to the apparatus. The guillotine door was opened and time to enter to dark compartment was recorded. When the rat entered to dark compartment completely (four foots in dark compartment), the guillotine door was closed and the rat was delivered an electrical shock of 0.8 mA for 3 sec through the grid floor. After the shock, the rat was immediately placed in home cage. In the retention trial, conducted 24 h after the acquisition trial, the rat was placed in the illuminated compartment and the retention latency to enter into the dark compartment was recorded until 180 s had elapsed. […] Data are presented as retention latency mean±SD (n=8).

O=C(O)CCC(=O)O [Succinic acid]
Improvement in learning and memory as compared to control rats (intranasally treated rats): significant improvement in learning and memory
Latency (retention latency to enter dark compartment, mean±SD) (intranasally): 87 ± 21 s
Improvement in learning and memory as compared to control rats (intraperitoneally treated rats): do not
Latency (retention latency to enter dark compartment, mean±SD) (intraperitoneally): 43 ± 19 s
